The target of test [1] is T1, Fatty-acid amide hydrolase 1 (Homo sapiens) (UniProt O00519).
T1 sequence (whole entry): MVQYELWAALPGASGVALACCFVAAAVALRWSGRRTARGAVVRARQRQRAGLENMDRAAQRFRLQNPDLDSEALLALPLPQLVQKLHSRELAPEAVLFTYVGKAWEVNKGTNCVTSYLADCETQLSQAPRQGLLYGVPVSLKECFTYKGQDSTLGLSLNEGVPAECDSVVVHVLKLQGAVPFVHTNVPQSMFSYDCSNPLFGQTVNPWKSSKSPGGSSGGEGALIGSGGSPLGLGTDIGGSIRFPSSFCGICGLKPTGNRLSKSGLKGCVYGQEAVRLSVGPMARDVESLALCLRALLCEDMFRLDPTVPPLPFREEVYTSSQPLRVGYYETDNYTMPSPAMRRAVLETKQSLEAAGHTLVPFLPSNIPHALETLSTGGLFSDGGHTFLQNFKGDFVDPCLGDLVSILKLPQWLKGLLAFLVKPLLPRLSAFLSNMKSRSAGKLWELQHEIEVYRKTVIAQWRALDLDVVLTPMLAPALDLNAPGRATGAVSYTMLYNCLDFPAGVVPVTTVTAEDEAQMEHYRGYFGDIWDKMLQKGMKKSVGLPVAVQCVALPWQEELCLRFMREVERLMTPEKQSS
The experiment in a line: Inhibition of recombinant human FAAH assessed as dissociation half life.

For test [2], the target named is CDK8/Cyclin C (Homo sapiens) (UniProt P49336+P24863). The experiment in a line: Binding affinity to CDK8/CycC (unknown origin) assessed as residence time. The test is classed as protein-complex assay.
Test [3] has as its target Histone-lysine N-methyltransferase EZH2 (Homo sapiens) (UniProt Q15910). Briefly: Binding affinity to EZH2 (unknown origin) assessed as residence time.

Some results are limits rather than exact numbers.

Histone-lysine N-methyltransferase EZH2 (Homo sapiens), sequence (Q15910 whole entry, looked up): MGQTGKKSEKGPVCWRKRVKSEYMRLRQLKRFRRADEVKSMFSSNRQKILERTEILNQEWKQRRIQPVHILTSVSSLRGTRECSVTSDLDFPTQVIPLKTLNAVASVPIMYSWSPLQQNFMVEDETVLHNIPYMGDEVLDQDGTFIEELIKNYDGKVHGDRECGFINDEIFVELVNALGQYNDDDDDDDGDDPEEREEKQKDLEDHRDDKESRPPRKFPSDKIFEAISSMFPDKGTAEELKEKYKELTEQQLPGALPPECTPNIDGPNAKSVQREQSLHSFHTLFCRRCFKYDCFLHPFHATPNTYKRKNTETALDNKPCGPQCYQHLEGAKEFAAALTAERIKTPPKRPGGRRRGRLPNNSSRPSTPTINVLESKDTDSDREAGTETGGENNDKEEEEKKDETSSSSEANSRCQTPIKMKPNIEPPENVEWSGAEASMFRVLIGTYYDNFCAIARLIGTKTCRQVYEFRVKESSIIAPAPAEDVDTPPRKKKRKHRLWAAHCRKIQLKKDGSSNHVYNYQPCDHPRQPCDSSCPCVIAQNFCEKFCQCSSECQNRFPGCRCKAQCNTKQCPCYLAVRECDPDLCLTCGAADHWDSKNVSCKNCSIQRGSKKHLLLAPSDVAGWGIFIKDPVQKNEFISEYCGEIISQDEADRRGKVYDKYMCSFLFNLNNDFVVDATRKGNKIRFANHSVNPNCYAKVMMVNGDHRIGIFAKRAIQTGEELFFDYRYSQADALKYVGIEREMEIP

As for `O=C(CCCCCCc1ccccc1)c1ncc(-c2ccccn2)o1`, the T1/2 in test [1] is greater than 10 h. Turning to `Cc1ccc(-n2nc(C(C)(C)C)cc2NC(=O)NCCN2CCOCC2)cc1`, the TIME in test [2] was less than 0.0233 h. On to `Cc1ccc(CNC(=O)c2cc(-c3ccnc(N4CCN(C)CC4)c3)cc3c2ccn3C(C)C)c(=O)[nH]1`, for which the TIME in test [3] was determined as 1.03 h. In the case of `Cc1ccc(-n2nc(C(C)(C)C)cc2NC(=O)NCCN2CCN(C(=O)Nc3cc(C(C)(C)C)nn3-c3ccc(C)cc3)CC2)cc1`, the TIME in test [2] was found to be 27.1 h. With `O=C(CCCCCCc1ccccc1)c1nc2ncccc2o1`, the T1/2 in test [1] was greater than 10 h. Take `CCCc1cc(C)[nH]c(=O)c1CNC(=O)c1cc(-c2ccnc(N3CCN(C)CC3)c2)cc2c1ccn2C(C)C`: the TIME in test [3] amounted to 0.717 h.
